The source made the active and inactive calls. No cut-off for these calls is given here.
Tests used:
Mus musculus [1] = experiment: Organ weight (stomach) was determined after administration of the compound
Mus musculus [2] = species: Mus musculus; experiment: Histopathology of the stomach was determined; N means normal variation in the presence of the compound.
Mus musculus [3] = species: Mus musculus; experiment: Organ weight ratio was determined for the compound with respect to (8-Benzyloxy-2-methyl-imidazo[1,2-a]pyridin-3-yl) compound
Canis familiaris [4] = experiment: Inhibition of gastric acid secretion stimulated by histamine in dog was determined by peroral administration; value ranges from 0.6-3.9; assay type: functional; settings: Canis lupus familiaris, Stomach, po
Mus musculus [5] = species: Mus musculus; experiment: Organ weight ratio was determined for the compound :control
Rattus norvegicus [6] = experiment: Cytoprotective activity against ethyle alcohol induced ulcers was determined in rats by peroral administration of the compound; assay type: functional; settings: po
Canis familiaris [7] = experiment: Inhibition of gastric acid secretion stimulated by histamine in dog was determined by peroral administration; IA means inactive; assay type: functional, organism-based; settings: Canis lupus familiaris; Stomach
Canis familiaris [8] = experiment: Inhibition of gastric acid secretion stimulated by histamine in dog was determined by peroral administration confidence limits (p=0.05.); value ranges from 2.1-14.0; assay type: functional; settings: Canis lupus familiaris, Stomach, po
Mus musculus [9] = species: Mus musculus; experiment: Histopathology of the stomach was determined as HGM (Hyperplasia of grandular mucosa)in the presence of the compound.
Mus musculus [10] = species: Mus musculus; experiment: Histopathology of the stomach was determined as HGM (Hyperplasia of grandular mucosa) in the presence of the compound.
Canis familiaris [11] = experiment: Inhibition of gastric acid secretion stimulated by histamine in dog was determined by peroral administration of the compound; assay type: functional; settings: Canis lupus familiaris, Stomach, po
Canis familiaris [12] = experiment: Inhibition of gastric acid secretion stimulated by histamine in dog was determined by peroral administration; value ranges from 2.3-59.2; assay type: functional; settings: Canis lupus familiaris, Stomach, po
Canis familiaris [13] = experiment: Inhibition of gastric acid secretion stimulated by histamine in dog was determined by peroral administration; the regression was not significant; assay type: functional; settings: Canis lupus familiaris, Stomach, po
Canis familiaris [14] = experiment: Percent inhibition of Histamine -stimulated gastric acid secretion at the oral dosage of 4 mg/kg.; assay type: functional; settings: Canis lupus familiaris, Stomach
Canis familiaris [15] = experiment: Percent inhibition of Histamine -stimulated gastric acid secretion at the oral dosage of 8 mg/kg.; assay type: functional; settings: Canis lupus familiaris, Stomach
Canis familiaris [16] = experiment: Inhibition of gastric acid secretion stimulated by histamine in dog was determined by peroral administration; IA means inactive oral dose of 8 mg/kg; assay type: functional, organism-based; design: dose 8 mg/kg; settings: Canis lupus familiaris; Stomach
Rattus norvegicus [17] = experiment: Cytoprotective activity against ethyle alcohol induced ulcers was determined in rats by peroral administration; IA means inactive; assay type: functional, organism-based
Canis familiaris [18] = experiment: Percent inhibition of Histamine stimulated gastric acid secretion at oral dosage of 4 mg/kg; assay type: functional; settings: Canis lupus familiaris, Stomach
Canis familiaris [19] = experiment: Percent inhibition of Histamine stimulated gastric acid secretion at oral dosage of 8 mg/kg; assay type: functional; settings: Canis lupus familiaris, Stomach
Canis familiaris [20] = experiment: Inhibition of gastric acid secretion stimulated by histamine in dog was determined by peroral administration; value ranges from 3.2-50.6; assay type: functional; settings: Canis lupus familiaris, Stomach, po

## Cc1nc2c(OCc3ccccc3)nccn2c1N
Mus musculus [1]
  Organ weight: 0.86 g
Mus musculus [2]
  Histopathology: Within normal variation
Mus musculus [3]
  Organ weight ratio: 0.8
Canis familiaris [4]
  ED50: 1.4 mg/kg
Mus musculus [5]
  Organ weight ratio: 1.1
Rattus norvegicus [6]
  ED50: 5 mg/kg

## Cc1cn2cccc(OCc3ccccc3)c2n1
Mus musculus [1]
  Organ weight: 0.84 g
Canis familiaris [7]
  ED50: inactive
Mus musculus [2]
  Histopathology: Within normal variation
Mus musculus [3]
  Organ weight ratio: 0.7
Mus musculus [5]
  Organ weight ratio: 1
Rattus norvegicus [6]
  ED50: 4 mg/kg

## Cc1nc2c(OCc3ccccc3)cccn2c1CC#N
Canis familiaris [8]
  ED50: 4.4 mg/kg
Mus musculus [1]
  Organ weight: 1.13 g
Mus musculus [3]
  Organ weight ratio: 1
Mus musculus [5]
  Organ weight ratio: 1.4
Rattus norvegicus [6]
  ED50: 3 mg/kg
Mus musculus [9]
  Histopathology: Hyperplasia of glandular mucosa

## Cc1nc2c(OCc3ccsc3)cccn2c1CC#N
Mus musculus [1]
  Organ weight: 1.12 g
Mus musculus [3]
  Organ weight ratio: 1
Mus musculus [5]
  Organ weight ratio: 1.5
Mus musculus [10]
  Histopathology: Hyperplasia of glandular mucosa
Canis familiaris [11]
  ED50: 2.7 mg/kg
Rattus norvegicus [6]
  ED50: 2 mg/kg

## Cc1nc2c(CCc3ccccc3)cccn2c1N
Mus musculus [1]
  Organ weight: 0.88 g
Mus musculus [2]
  Histopathology: Within normal variation
Mus musculus [3]
  Organ weight ratio: 0.8
Mus musculus [5]
  Organ weight ratio: 1.1
Rattus norvegicus [6]
  ED50: 9 mg/kg
Canis familiaris [12]
  ED50: 6.8 mg/kg

## Cc1nc2ccc(CCc3ccccc3)cn2c1N
Mus musculus [1]
  Organ weight: 0.81 g
Canis familiaris [7]
  ED50: inactive
Mus musculus [2]
  Histopathology: Within normal variation
Mus musculus [3]
  Organ weight ratio: 0.7
Mus musculus [5]
  Organ weight ratio: 1
Rattus norvegicus [6]
  ED50: 5.7 mg/kg

## Cc1nc2c(OCc3ccccc3)cccn2c1N
Mus musculus [1]
  Organ weight: 1.09 g
Mus musculus [3]
  Organ weight ratio: 1
Mus musculus [5]
  Organ weight ratio: 1.2
Rattus norvegicus [6]
  ED50: 6 mg/kg
Canis familiaris [13]
  ED50: 2 mg/kg
Mus musculus [9]
  Histopathology: Hyperplasia of glandular mucosa

## Cc1nc2c(CCc3ccccc3)cccn2c1CC#N
Mus musculus [1]
  Organ weight: 0.99 g
Mus musculus [3]
  Organ weight ratio: 0.9
Mus musculus [5]
  Organ weight ratio: 1.2
Canis familiaris [11]
  ED50: > 4.4 mg/kg
Canis familiaris [14]
  inhibition in vivo at 4 mg/kg: 3%
Rattus norvegicus [6]
  ED50: 7 mg/kg
Mus musculus [9]
  Histopathology: Hyperplasia of glandular mucosa
Canis familiaris [15]
  inhibition in vivo at 8 mg/kg: 83%

## Cc1nc2ccc(CCc3ccccc3)cn2c1CC#N
Mus musculus [1]
  Organ weight: 0.81 g
Mus musculus [2]
  Histopathology: Within normal variation
Mus musculus [3]
  Organ weight ratio: 0.7
Mus musculus [5]
  Organ weight ratio: 1
Canis familiaris [16]
  ED50: inactive
Rattus norvegicus [6]
  ED50: 2.7 mg/kg

## Cc1cn2c(OCc3ccccc3)cccc2n1
Mus musculus [1]
  Organ weight: 0.76 g
Canis familiaris [7]
  ED50: inactive
Mus musculus [2]
  Histopathology: Within normal variation
Mus musculus [3]
  Organ weight ratio: 0.7
Mus musculus [5]
  Organ weight ratio: 0.9
Rattus norvegicus [6]
  ED50: 1 mg/kg

## Cc1nc2c(O)cccn2c1CC#N
Mus musculus [1]
  Organ weight: 0.8 g
Canis familiaris [7]
  ED50: inactive
Rattus norvegicus [17]
  ED50: inactive
Mus musculus [2]
  Histopathology: Within normal variation
Mus musculus [3]
  Organ weight ratio: 0.7
Mus musculus [5]
  Organ weight ratio: 1

## Cc1c(CC#N)nc2c(OCc3ccccc3)cccn12
Mus musculus [1]
  Organ weight: 0.98 g
Rattus norvegicus [17]
  ED50: inactive
Mus musculus [3]
  Organ weight ratio: 0.9
Canis familiaris [18]
  inhibition in vivo at 4 mg/kg: 19%
Mus musculus [5]
  Organ weight ratio: 1.2
Canis familiaris [11]
  ED50: > 4.4 mg/kg
Canis familiaris [19]
  inhibition in vivo at 8 mg/kg: 91%
Mus musculus [9]
  Histopathology: Hyperplasia of glandular mucosa

## Cc1nc2c(NCc3ccccc3)cccn2c1CC#N
Mus musculus [1]
  Organ weight: 0.9 g
Mus musculus [3]
  Organ weight ratio: 0.8
Mus musculus [5]
  Organ weight ratio: 1.2
Canis familiaris [11]
  ED50: 6.7 mg/kg
Rattus norvegicus [6]
  ED50: 2 mg/kg
Mus musculus [9]
  Histopathology: Hyperplasia of glandular mucosa

## Cc1ccn2c(CC#N)c(C)nc2c1OCc1ccccc1
Canis familiaris [20]
  ED50: 7.1 mg/kg
Mus musculus [1]
  Organ weight: 0.9 g
Mus musculus [2]
  Histopathology: Within normal variation
Mus musculus [3]
  Organ weight ratio: 0.8
Mus musculus [5]
  Organ weight ratio: 1.1
Rattus norvegicus [6]
  ED50: 13 mg/kg

Reference: ChEMBL document CHEMBL1123917, “Antiulcer agents. 3. Structure-activity-toxicity relationships of substituted imidazo[1,2-a]pyridines and a related imidazo[1,2-a]pyrazine” (1987)
